Data taken from patent US20050238651A1, “Treatment of inflammatory bowel disease” (priority 2003, published 2005).

Key:
[1] = system: interleukin (IL)-2 mRNA; assay: Real-time PCR of colonic IL-2 mRNA; conditions: 4 days after TNBS
[2] = system: indoleamine 2,3-dioxygenase mRNA; assay: Real-time PCR of indoleamine 2,3-dioxygenase mRNA in distal colon; format: in vivo, SJL/J mouse; conditions: TNBS colitis, Day 4; PBS 8 fold
Text: (§1) Six week old female SJL/J mice weighing approximately 20 grams, which were maintained at a controlled temperature and light/dark cycle in a pathogen free facility, were anesthetized with an intraperitoneal injection of a 10% Ketamine/Xylazine mixture. […] Mice were sacrificed 4 days after treatment for determination of indoleamine 2,3-dioxygenase protein and mRNA levels.

[3] = system: TGFβ1 mRNA; assay: Real-time PCR of colonic TGFβ / TGFβ1 mRNA
[4] = system: TNFα mRNA; assay: Real-time PCR of colonic TNFα mRNA; format: in vivo, mouse; conditions: TNBS colitis, Day 4; PBS 5 fold
[5] = system: TNBS colitis; assay: TNBS colitis treated with CTLA-4-Ig with or without 1-mT: weight, survival, clinical characteristics, histological and morphological scoring; format: in vivo, SJL/J mice
[6] = system: IL-12 mRNA; assay: Real-time PCR of colonic IL-12 mRNA; conditions: 4 days after TNBS, Example 5; placebo 20-fold
[7] = system: indoleamine 2,3-dioxygenase protein; assay: Western blotting of indoleamine 2,3-dioxygenase protein in distal colon lysates; format: in vivo, mouse; conditions: four days after TNBS, 1-mT versus placebo
Protocol: as §1
Western blotting (Bio-Rad, Hercules, Calif.) for determining indoleamine 2,3-dioxygenase protein amount was performed on whole colon lysates obtained from the distal colons of both control mice and mice treated with Trinitrobenzene Sulfonic Acid. For Lamina Propria Mononuclear cells, 1×10^6 cells were concentrated and loaded per lane. The samples were denatured and separated on an 8% Sodium Dodecyl Sulphate-Polyacrylamide (SDS-PAGE) gel. After electrophoresis, the separated proteins were then transferred to an Immobilon-P Transfer Membrane (Millipore, Be-dford, Mass.). […] The secondary antibodies were donkey anti-rabbit linked to horseradish peroxidase. After probing for indoleamine 2,3-dioxygenase protein, the membranes were stripped and reprobed for β-actin, which was used in addition to the protein assay to ensure equal protein loading.
Western blotting for indoleamine 2,3-dioxygenase was performed as follows. […] The protein was detected using ECL (Amersham). […]

[8] = system: lymphocytes in lamina propria lymphoid aggregates; assay: BrdU immunohistochemistry of lymphocyte proliferation in lamina propria lymphoid aggregates; format: in vivo, mice; conditions: 4 days and 6 days after TNBS
Protocol: Lymphocyte proliferation was determined by BrdU labeling of lamina propria lymphoid aggregates of mice treated with Trinitrobenzene Sulfonic Acid enemas plus subcutaneous pellets containing 1-methyl-tryptophan.
BrdU immunohistochemistry was performed to measure cellular proliferation in hypertrophied lymphoid aggregates within the lamina propria of Trinitrobenzene Sulfonic Acid ±1-methyl-tryptophan treated mice. Mice were given rectal Trinitrobenzene Sulfonic Acid and subcutaneous pellets containing 1-methyl-tryptophan or placebo. Groups of mice were sacrificed at 4 days and 6 days after Trinitrobenzene Sulfonic Acid administration. Each mouse received BrdU two hours prior to sacrifice in order to label the S-phase cells. Four micro paraffin sections were prepared from the inflamed colon segments with macroscopically visible hypertrophied colonic patches then labeling was performed as previously described in Riehl, Gasteroenterology, 118: 1106-16, 2000.

[9] = system: Trinitrobenzene Sulfonic Acid colitis; conditions: mouse, in vivo
[10] = system: IL-1 mRNA; assay: Real-time PCR of colonic IL-1 mRNA; conditions: 4 days after TNBS
[11] = system: Forkhead box P3 (Foxp3) mRNA; assay: Real-time PCR of colonic Foxp3 mRNA; format: in vivo, mouse; conditions: Day 4 of TNBS colitis
[12] = system: IFN-γ mRNA; assay: Real-time PCR of colonic IFN-γ mRNA
[13] = system: indoleamine 2,3-dioxygenase in lamina propria mononuclear cells; assay: IDO expression in cultured colonic lamina propria mononuclear cells incubated with rIFN-γ and/or LPS; format: cell-based, mouse

Cn1cc(C[C@H](N)C(=O)O)c2ccccc21 [1-mT, 1-methyltryptophan]
IL-2 expression versus TNBS and placebo [1]: significantly higher expression by orders of magnitude | increase in IDO mRNA expression over controls [2]: 2 fold | expression of TGFβ ([3]; 4 days after TNBS, Example 5, placebo about half of control): 1.5 times control values | TGFβ1 mRNA induction ([3]; Day 4 of TNBS colitis): 0.8 fold | TNFα mRNA induction [4]: 16 fold | morphological score ([5]; Day 4 of TNBS, PBS 2.9): 4.2 | histological score ([5]; Day 4 of TNBS, PBS 5.4): 6.6 | histology of distal colon ([5]; TNBS, Day 4): more transmural inflammation, loss of tissue architecture and vasculature, and outright necrosis | survival rate ([5]; TNBS, by Day 4, PBS+TNBS 75%): 62.5% | surviving animals with clinical characteristics of active TNBS colitis (hunched, piloerection), number of animals ([5]; TNBS, TNBS+PBS 7/9): 4/5 | surviving animals with clinical characteristics of TNBS colitis ([5]; TNBS, TNBS+PBS 78%): 80% | mortality (animals dead of animals treated) ([5]; mouse, in vivo): 3 of 8 | mortality rate ([5]; mouse, in vivo): 37% | IL-12 expression increase over baseline [6]: 120 fold | colonic indoleamine 2,3-dioxygenase protein amount [7]: no difference | S phase lymphocytes in lymphoid aggregates (BrdU) versus placebo [8]: significantly more S phase lymphocytes | effect on colonic morphology [9]: no effect on colonic morphology | gross morphology of colon versus placebo [9]: significant gross morphologic differences | histologic appearance versus placebo [9]: no significant histologic differences | histologic scores versus placebo [9]: significantly higher | survival rate [9]: 100% | survival at 7 days after Trinitrobenzene Sulfonic Acid administration ([9]; sc): 20% | IL-1 mRNA levels versus TNBS alone [10]: markedly increased | induction of Foxp3 mRNA [11]: 11 fold | IFN-γ expression increase over baseline ([12]; 4 days after TNBS, Example 5, placebo 8-fold): 75 fold | induction of IFN-γ mRNA ([12]; TNBS colitis, Day 4): 15 fold

rIFN-γ: recombinant interferon-γ (R&D systems)
indoleamine 2,3-dioxygenase expression after incubation ([13]; B220+ enriched lamina propria mononuclear cell population): did express indoleamine 2,3-dioxygenase after incubation | indoleamine 2,3-dioxygenase expression after incubation ([13]; B220-/MHCII- lamina propria mononuclear cell population): increased after incubation | indoleamine 2,3-dioxygenase expression after incubation ([13]; MHCII+/B220- lamina propria mononuclear cell population): further induced | indoleamine 2,3-dioxygenase protein induction ([13]; colon lamina propria mononuclear cells from STAT1-/- animals): severely blunted indoleamine 2,3-dioxygenase protein induction | indoleamine 2,3-dioxygenase induction ([13]; colonic lamina propria mononuclear cells from C57BL/6 mice, 24 hours): increased significantly | concentration required to maximally increase indoleamine 2,3-dioxygenase protein ([13]; lamina propria mononuclear cells): less than 1 ng/ml | indoleamine 2,3-dioxygenase expression after incubation ([13]; unfractionated lamina propria mononuclear cells of untreated mice, 30 ng/mL, 24 hours): marked increase
